Data taken from ChEMBL document CHEMBL4477225, “Development of a cell viability assay to assess drug metabolite structure-toxicity relationships” (Bioorg Med Chem Lett, 2016).

Legend:
Details in all cases: recombinant enzyme
Cytochrome P450 2C9 = Cytochrome P450 2C9 (Homo sapiens, UniProt P11712); assay: (§1) Drug activation in human Hep3B cells assessed as human CYP2C9-mediated drug metabolism-induced cytotoxicity measured as decrease in cell viability at 300 uM pre-incubated with BSO for 18 hrs followed by incubation with compound for 3 hrs in presence of NADPH measured after 24 hrs in absence of compound, CYP3A4 and NADPH by cell titer-glo luminescence assay relative to BSO alone
Cytochrome P450 2D6 = Cytochrome P450 2D6 (Homo sapiens, UniProt P10635); assay: as §1, with “CYP2D6-mediated” for “CYP2C9-mediated”
Cytochrome P450 3A4 = Cytochrome P450 3A4 (Homo sapiens, UniProt P08684); assay: as §1, with “CYP3A4-mediated” for “CYP2C9-mediated”
Chain of Cytochrome P450 3A4 (P08684 whole entry): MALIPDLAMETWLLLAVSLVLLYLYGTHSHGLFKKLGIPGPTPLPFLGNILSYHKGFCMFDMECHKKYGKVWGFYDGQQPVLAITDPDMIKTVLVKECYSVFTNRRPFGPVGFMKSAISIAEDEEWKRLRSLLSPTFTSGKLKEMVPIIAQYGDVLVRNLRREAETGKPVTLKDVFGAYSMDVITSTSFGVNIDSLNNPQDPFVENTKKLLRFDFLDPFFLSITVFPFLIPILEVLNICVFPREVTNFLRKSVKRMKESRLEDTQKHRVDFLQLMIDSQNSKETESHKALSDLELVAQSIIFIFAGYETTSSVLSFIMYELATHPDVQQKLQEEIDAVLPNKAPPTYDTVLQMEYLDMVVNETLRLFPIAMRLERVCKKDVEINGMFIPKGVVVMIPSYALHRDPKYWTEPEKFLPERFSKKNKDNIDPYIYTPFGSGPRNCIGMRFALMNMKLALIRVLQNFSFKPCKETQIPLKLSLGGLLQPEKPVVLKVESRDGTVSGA

Chain of Cytochrome P450 2C9 (P11712 whole entry): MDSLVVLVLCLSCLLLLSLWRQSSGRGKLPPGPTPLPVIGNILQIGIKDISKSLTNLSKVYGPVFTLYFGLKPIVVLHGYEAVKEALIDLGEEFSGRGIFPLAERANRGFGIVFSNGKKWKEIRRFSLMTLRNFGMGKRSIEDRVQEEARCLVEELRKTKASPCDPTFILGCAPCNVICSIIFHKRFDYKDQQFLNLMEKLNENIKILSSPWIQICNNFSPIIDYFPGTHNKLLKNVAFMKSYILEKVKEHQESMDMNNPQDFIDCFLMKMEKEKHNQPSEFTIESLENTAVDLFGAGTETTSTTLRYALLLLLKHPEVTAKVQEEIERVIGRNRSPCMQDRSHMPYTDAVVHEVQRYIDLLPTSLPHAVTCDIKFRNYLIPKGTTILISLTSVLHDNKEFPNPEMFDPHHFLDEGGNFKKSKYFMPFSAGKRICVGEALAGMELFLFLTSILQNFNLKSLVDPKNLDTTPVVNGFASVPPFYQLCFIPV
Chain of Cytochrome P450 2D6 (P10635 whole entry): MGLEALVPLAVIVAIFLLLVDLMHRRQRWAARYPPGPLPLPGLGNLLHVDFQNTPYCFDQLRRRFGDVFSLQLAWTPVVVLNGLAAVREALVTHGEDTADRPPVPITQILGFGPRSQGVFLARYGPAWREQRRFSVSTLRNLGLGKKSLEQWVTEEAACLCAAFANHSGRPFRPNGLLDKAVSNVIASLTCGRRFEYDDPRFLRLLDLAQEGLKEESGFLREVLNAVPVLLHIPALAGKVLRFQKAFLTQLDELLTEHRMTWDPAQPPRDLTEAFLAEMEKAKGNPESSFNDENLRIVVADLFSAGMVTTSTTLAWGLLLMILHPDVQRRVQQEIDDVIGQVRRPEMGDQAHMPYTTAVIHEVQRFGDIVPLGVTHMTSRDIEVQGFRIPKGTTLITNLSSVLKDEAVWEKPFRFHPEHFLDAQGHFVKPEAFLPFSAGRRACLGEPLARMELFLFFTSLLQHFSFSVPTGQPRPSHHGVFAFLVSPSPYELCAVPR

Compound	FC (Cytochrome P450 2C9)	FC (Cytochrome P450 2D6)	FC (Cytochrome P450 3A4)
CC(C(=O)O)c1ccc(-c2ccccc2)c(F)c1 (stereo not drawn) [FLURBIPROFEN]	1	1	1
Nc1nc2ncc(CNc3ccc(C(=O)N[C@@H](CCC(=O)O)C(=O)O)cc3)nc2c(=O)[nH]1 [FOLIC ACID]	0.6	0.6	0.6
Nc1nc(O)c2ncn(COC(CO)CO)c2n1 [GANCICLOVIR]	1	1	1
COC1=CC(=O)C[C@@H](C)[C@]12Oc1c(Cl)c(OC)cc(OC)c1C2=O [GRISEOFULVIN]	1	1	1
O=C(CCCN1CCC(O)(c2ccc(Cl)cc2)CC1)c1ccc(F)cc1 [HALOPERIDOL]	1	1	1
NNC(=O)c1ccncc1 [ISONIAZID]	1	1	1
NC[C@H]1O[C@H](O[C@H]2[C@H](O)[C@@H](O[C@H]3O[C@H](CO)[C@@H](O)[C@H](N)[C@H]3O)[C@H](N)C[C@@H]2N)[C@H](O)[C@@H](O)[C@@H]1O [KANAMYCIN]	1	1	1
Nc1ccn([C@@H]2CS[C@H](CO)O2)c(=O)n1 [LAMIVUDINE]	1	1	1
Cc1oncc1C(=O)Nc1ccc(C(F)(F)F)cc1 [LEFLUNOMIDE]		1	1
Sc1ncnc2nc[nH]c12 [MERCAPTOPURINE ANHYDROUS]		1	1
CC(C)NCC(O)c1cc(O)cc(O)c1 (stereo not drawn) [METAPROTERENOL]	1	1	1
CN(Cc1cnc2nc(N)nc(N)c2n1)c1ccc(C(=O)N[C@@H](CCC(=O)O)C(=O)O)cc1 [METHOTREXATE]		1	1
COCCc1ccc(OCC(O)CNC(C)C)cc1 (stereo not drawn) [METOPROLOL]	1	1	1
Cc1cccc(C)c1OCC(C)N (stereo not drawn) [MEXILETINE]	1	1	1
CN(C)c1ccc(O)c2c1C[C@H]1C[C@H]3[C@H](N(C)C)C(O)=C(C(N)=O)C(=O)[C@@]3(O)C(O)=C1C2=O [MINOCYCLINE]	1	1	1
Cc1ccnc2c1NC(=O)c1cccnc1N2C1CC1 [NEVIRAPINE]	1	1	1

Compound	FC (Cytochrome P450 2C9)	FC (Cytochrome P450 2D6)	FC (Cytochrome P450 3A4)
O=C(O)c1cccnc1 [NIACIN]		1	1
CS(=O)(=O)Nc1ccc([N+](=O)[O-])cc1Oc1ccccc1 [NIMESULIDE]	1		
CNC(=C[N+](=O)[O-])NCCSCc1csc(CN(C)C)n1 [NIZATIDINE]	1	1	1
CN1Cc2c(N)cccc2C(c2ccccc2)C1 (stereo not drawn) [NOMIFENSINE]	0.3	0.3	0.3
CCCCCCCCCCC[C@@H](C[C@@H]1OC(=O)[C@H]1CCCCCC)OC(=O)[C@H](CC(C)C)NC=O [ORLISTAT]	1	1	1
CCOC(=O)C1=C[C@@H](OC(CC)CC)[C@H](NC(C)=O)[C@@H](N)C1 [OSELTAMIVIR]	1	1	1
CCc1ccc(CCOc2ccc(CC3SC(=O)NC3=O)cc2)nc1 (stereo not drawn) [PIOGLITAZONE]	1	1	1
CC[C@H](C)C(=O)O[C@H]1C[C@H](O)C=C2C=C[C@H](C)[C@H](CC[C@@H](O)C[C@@H](O)CC(=O)O)[C@H]21 [PRAVASTATIN]	1	1	1
CCC1(c2ccccc2)C(=O)NCNC1=O [PRIMIDONE]	1	1	1
NC(=O)c1cnccn1 [PYRAZINAMIDE]	1	1	1
NC(=O)c1ncn([C@@H]2O[C@H](CO)[C@@H](O)[C@H]2O)n1 [RIBAVIRIN]		1	1
Cc1cn([C@H]2C=C[C@@H](CO)O2)c(=O)[nH]c1=O [STAVUDINE]	1	1	1
[H]/N=C(/N)N[C@H]1[C@H](O)[C@@H](O)[C@H](O[C@@H]2O[C@@H](C)[C@](O)(C=O)[C@H]2O[C@@H]2O[C@@H](CO)[C@H](O)[C@@H](O)[C@@H]2NC)[C@@H](N/C(N)=N\[H])[C@@H]1O [STREPTOMYCIN]	1	1	1
CCOc1ccccc1OCCN[C@H](C)Cc1ccc(OC)c(S(N)(=O)=O)c1 [TAMSULOSIN]	1		1
CCCCNC(=O)NS(=O)(=O)c1ccc(C)cc1 [TOLBUTAMIDE]		1	
